Measured values taken from BindingDB's records for doi:10.1016/j.bmcl.2004.08.039 (Glaxosmithkline, 2004).
pKi: −log10 of the molar value.

What follows are molecules tested against T1, Dimer of Gag-Pol polyprotein [501-599,Q508K,L534I,L564I,C568A,C596A] (Human immunodeficiency virus 1, UniProt P03367, C568A/C596A/L534I/L564I/Q508K) (assay: Protease Inhibition Assay). Conditions: pH 6.4; 25 °C.
T1 construct: 501-599
Procedure: The Ki values were determined using fluorogenic substrate, 2-(aminobenzoyl)-Thr-Ile-Nle-Phe(p-NO2)-Gln-ArgNH2. A standard curve relating changes in fluorescent intensity to changes in concentration of product was used to convert fluorescent changes into molar velocities. The amount of cleavage was determined by HPLC.

| SMILES | pKi |
| --- | --- |
| N#CCOc1cccc(C[C@H]2C[C@H](Cc3ccccc3)N(C[C@@H](O)C[C@@H](Cc3ccccc3)C(=O)N[C@H]3c4ccccc4C[C@H]3O)C2=O)c1 [(2R,4S)-2-benzyl-5-[(3S,5R)-5-benzyl-3-{[3-(cyanomethoxy)phenyl]methyl}-2-oxopyrrolidin-1-yl]-4-hydroxy-N-[(1S,2R)-2-hydroxy-2,3-dihydro-1H-inden-1-yl]pentanamide] | 10.10 |
| O=C(N[C@H]1c2ccccc2C[C@H]1O)[C@H](Cc1ccccc1)C[C@H](O)CN1C(=O)C(Cc2ccncc2)C[C@@H]1Cc1ccccc1 (stereo partly drawn) [(2R,4S)-2-benzyl-5-[(5R)-5-benzyl-2-oxo-3-(pyridin-4-ylmethyl)pyrrolidin-1-yl]-4-hydroxy-N-[(1S,2R)-2-hydroxy-2,3-dihydro-1H-inden-1-yl]pentanamide] | 9.51 |
| O=C(NCCOCCO)c1cccc(C[C@H]2C[C@H](Cc3ccccc3)N(C[C@@H](O)C[C@@H](Cc3ccccc3)C(=O)N[C@H]3c4ccccc4C[C@H]3O)C2=O)c1 [3-{[(3S,5R)-5-benzyl-1-[(2S,4R)-4-benzyl-2-hydroxy-4-{[(1S,2R)-2-hydroxy-2,3-dihydro-1H-inden-1-yl]carbamoyl}butyl]-2-oxopyrrolidin-3-yl]methyl}-N-[2-(2-hydroxyethoxy)ethyl]benzamide] | 9.62 |
| CCNC(=O)Nc1cccc(C[C@H]2C[C@H](Cc3ccccc3)N(C[C@@H](O)C[C@@H](Cc3ccccc3)C(=O)N[C@H]3c4ccccc4C[C@H]3O)C2=O)c1 [(2R,4S)-2-benzyl-5-[(3S,5R)-5-benzyl-3-({3-[(ethylcarbamoyl)amino]phenyl}methyl)-2-oxopyrrolidin-1-yl]-4-hydroxy-N-[(1S,2R)-2-hydroxy-2,3-dihydro-1H-inden-1-yl]pentanamide] | 9.70 |
| Nc1ccc(CC2C[C@H](Cc3ccccc3)N(C[C@@H](O)C[C@@H](Cc3ccccc3)C(=O)N[C@H]3c4ccccc4C[C@H]3O)C2=O)cc1 (stereo partly drawn) [(2R,4S)-5-[(5R)-3-[(4-aminophenyl)methyl]-5-benzyl-2-oxopyrrolidin-1-yl]-2-benzyl-4-hydroxy-N-[(1S,2R)-2-hydroxy-2,3-dihydro-1H-inden-1-yl]pentanamide] | 8.64 |
| NC(=O)c1cccc(C[C@H]2C[C@H](Cc3ccccc3)N(C[C@@H](O)C[C@@H](Cc3ccccc3)C(=O)N[C@H]3c4ccccc4C[C@H]3O)C2=O)c1 [3-{[(3S,5R)-5-benzyl-1-[(2S,4R)-4-benzyl-2-hydroxy-4-{[(1S,2R)-2-hydroxy-2,3-dihydro-1H-inden-1-yl]carbamoyl}butyl]-2-oxopyrrolidin-3-yl]methyl}benzamide] | 10.00 |
| Nc1cccc(C[C@H]2C[C@H](Cc3ccccc3)N(C[C@@H](O)C[C@@H](Cc3ccccc3)C(=O)N[C@H]3c4ccccc4C[C@H]3O)C2=O)c1 [(2R,4S)-5-[(3S,5R)-3-[(3-aminophenyl)methyl]-5-benzyl-2-oxopyrrolidin-1-yl]-2-benzyl-4-hydroxy-N-[(1S,2R)-2-hydroxy-2,3-dihydro-1H-inden-1-yl]pentanamide] | 10.00 |
| NC(=O)c1cccc(C[C@H]2C[C@H](Cc3ccccc3)N(C[C@@H](O)C[C@@H](Cc3ccc(OCCO)cc3)C(=O)N[C@H]3c4ccccc4C[C@H]3O)C2=O)c1 [3-{[(3S,5R)-5-benzyl-1-[(2S,4R)-2-hydroxy-4-{[(1S,2R)-2-hydroxy-2,3-dihydro-1H-inden-1-yl]carbamoyl}-4-{[4-(2-hydroxyethoxy)phenyl]methyl}butyl]-2-oxopyrrolidin-3-yl]methyl}benzamide] | 10.30 |
| O=C(N[C@H]1c2ccccc2C[C@H]1O)[C@H](Cc1ccccc1)C[C@H](O)CN1C(=O)[C@@H](Cc2cccc(O)c2)C[C@@H]1Cc1ccccc1 [(2R,4S)-2-benzyl-5-[(3S,5R)-5-benzyl-3-[(3-hydroxyphenyl)methyl]-2-oxopyrrolidin-1-yl]-4-hydroxy-N-[(1S,2R)-2-hydroxy-2,3-dihydro-1H-inden-1-yl]pentanamide] | 10.30 |
| O=C(NCCN1CCOCC1)c1cccc(C[C@H]2C[C@H](Cc3ccccc3)N(C[C@@H](O)C[C@@H](Cc3ccccc3)C(=O)N[C@H]3c4ccccc4C[C@H]3O)C2=O)c1 [3-{[(3S,5R)-5-benzyl-1-[(2S,4R)-4-benzyl-2-hydroxy-4-{[(1S,2R)-2-hydroxy-2,3-dihydro-1H-inden-1-yl]carbamoyl}butyl]-2-oxopyrrolidin-3-yl]methyl}-N-[2-(morpholin-4-yl)ethyl]benzamide] | 9.82 |
| COC(=O)c1cccc(C[C@H]2C[C@H](Cc3ccccc3)N(C[C@@H](O)C[C@@H](Cc3ccccc3)C(=O)N[C@H]3c4ccccc4C[C@H]3O)C2=O)c1 [methyl 3-{[(3S,5R)-5-benzyl-1-[(2S,4R)-4-benzyl-2-hydroxy-4-{[(1S,2R)-2-hydroxy-2,3-dihydro-1H-inden-1-yl]carbamoyl}butyl]-2-oxopyrrolidin-3-yl]methyl}benzoate] | 9.38 |
| NC(=O)COc1cccc(C[C@H]2C[C@H](Cc3ccccc3)N(C[C@@H](O)C[C@@H](Cc3ccccc3)C(=O)N[C@H]3c4ccccc4C[C@H]3O)C2=O)c1 [(2R,4S)-2-benzyl-5-[(3S,5R)-5-benzyl-3-{[3-(carbamoylmethoxy)phenyl]methyl}-2-oxopyrrolidin-1-yl]-4-hydroxy-N-[(1S,2R)-2-hydroxy-2,3-dihydro-1H-inden-1-yl]pentanamide] | 10.05 |
| CCOC(=O)CNC(=O)Nc1cccc(C[C@H]2C[C@H](Cc3ccccc3)N(C[C@@H](O)C[C@@H](Cc3ccccc3)C(=O)N[C@H]3c4ccccc4C[C@H]3O)C2=O)c1 [ethyl 2-{[(3-{[(3S,5R)-5-benzyl-1-[(2S,4R)-4-benzyl-2-hydroxy-4-{[(1S,2R)-2-hydroxy-2,3-dihydro-1H-inden-1-yl]carbamoyl}butyl]-2-oxopyrrolidin-3-yl]methyl}phenyl)carbamoyl]amino}acetate] | 10.00 |
| N#Cc1ccc(CC2C[C@H](Cc3ccccc3)N(C[C@@H](O)C[C@@H](Cc3ccccc3)C(=O)N[C@H]3c4ccccc4C[C@H]3O)C2=O)cc1 (stereo partly drawn) [(2R,4S)-2-benzyl-5-[(5R)-5-benzyl-3-[(4-cyanophenyl)methyl]-2-oxopyrrolidin-1-yl]-4-hydroxy-N-[(1S,2R)-2-hydroxy-2,3-dihydro-1H-inden-1-yl]pentanamide] | 9.47 |
| N#Cc1cccc(C[C@H]2C[C@H](Cc3ccccc3)N(C[C@@H](O)C[C@@H](Cc3ccccc3)C(=O)N[C@H]3c4ccccc4C[C@H]3O)C2=O)c1 [(2R,4S)-2-benzyl-5-[(3S,5R)-5-benzyl-3-[(3-cyanophenyl)methyl]-2-oxopyrrolidin-1-yl]-4-hydroxy-N-[(1S,2R)-2-hydroxy-2,3-dihydro-1H-inden-1-yl]pentanamide] | 10.30 |
